Test results as given in patent publication US9598451B2, “Bis-organometallic 2-amino-3-hydroxy-2-methylpropanenitrile derivatives for use as anthelmintics” (UNIVERSITÄT ZÜRICH, priority 2013, dated 2017).
pIC50: −log10 of the molar value.

Experiments:
Type in all cases: cell-based
[1] = test system: human lung fibroblasts MRC-5; test: fluorometric cell viability assay (Resazurin), MRC-5; settings: MRC-5 cells, treated for 2 days
Procedure: (§1) Cell Culture: Human cervical carcinoma cells (HeLa) were cultured in DMEM (Gibco) supplemented with 5% fetal calf serum (FCS, Gibco), 100 U/ml penicillin, 100 μg/ml streptomycin at 37° C. and 5% CO2. The normal human fetal lung fibroblast MRC-5 cell line was maintained in F-10 medium (Gibco) supplemented with 10% FCS (Gibco), 200 mmol/l L-Glutamine, 100 U/ml penicillin, and 100 μg/ml streptomycin at 37° C. and 5% CO2. To establish the anticancer potential of the compounds they were tested in one cell line, namely HeLa by a fluorometric cell viability assay using Resazurin (Promocell GmbH). Compounds showing cytotoxicity were then tested on normal MRC-5 cells. 1 day before treatment, cells were plated in triplicates in 96-well plates at a density of 4×10^3 cells/well in 100μl for HeLa and 7×10^3 cells/well for MRC-5 cells. Cells were treated with increasing concentrations of the compounds for 2 days. After 2 days, medium and drug were removed and […] fresh medium containing Resazurin (0.2 mg/ml final concentration) were added. After 4h of incubation at 37° C., the highly red fluorescent dye resorufin's fluorescence was quantified at 590 nm emission with 540 nm excitation wavelength in the SpectraMax M5 microplate Reader. […]

[2] = test system: human cervical cancer HeLa; test: fluorometric cell viability assay (Resazurin), HeLa; settings: HeLa cells, treated for 2 days
Procedure: as §1

C. elegans = C. elegans movement inhibition assay; settings: for mobility of the C. elegans worms: 50 μM, result in words
Procedure: C. elegans movement inhibition assay: Asynchronous N2 C. elegans worms (Bristol) were maintained on nematode growth medium (NGM) agar, seeded with a lawn on OP50 E. coli as a food-source, according to standard protocol (Maintenance of C. elegans; Stiernagle, T., Ed.; WormBook, 2006.). Worms were harvested from NGM plates by washing with M9 buffer (42 mmol/l Na2HPO4, 86 mmol/l NaCl and 1 mmol/l MgSO4), aspiration and collection in a 10 mL tube (Falcon). The average number of worms in 5 μL of this suspension was calculated by transferring 4×5 μL aliquots to a glass slide (Menzel Glaser), and worms were enumerated under a compound microscope (Olympus CH30). To adjust the suspension to contain 1 worm per μL, M9 buffer was either added or removed after pelleting worms at 600×g for 30 sec.
Dilution of test compounds, Zolvix (monepantel) and DMSO for working stock solutions and 96 well plate set-up for liquid screen: A volume of […] buffer was added to each well in a 96-well plate, using a multichannel pipettor. A volume of 20μL of worm suspension was added to each well using a single-channel pipettor, with a trimmed pipette tip (increased aperture to minimize damage to worms). The worm suspension was resuspended by flicking after every three wells to maintain consistency. The compounds were stored at 4° C., and diluted in dimethyl sulfoxide (DMSO) to achieve a 100 mmol/l concentration 1 hr prior to addition to assay. These stock solutions were diluted further in DMSO to create a series of 20 mmol/l, […] and 0.002 mmol/l which were subsequently diluted 1:20 in M9 buffer to create 1 mmol/l, 0.1 mmol/l, 1 μmol/l and 0.1 μmol/l (all 5% (v/v) DMSO). […] A Zolvix (monepantel) dilution series was simultaneously created following the same dilution schema, and used as a positive control; 10 μL of 10% DMSO was added to achieve 1% DMSO vehicle control. 10 μL M9 was added to negative control wells (see FIG. 1). Plates were incubated at […]
Quantitative worm mobility scoring: Immobile worms were counted as a percentage of total worms in each well using an Olympus SZ30 dissecting microscope. The immobile fraction was subtracted from the total, and this remainder was divided by the total to give a percentage of live worms per well. Descriptive and inferential statistics were deferred until further replicates are performed.

H. contortus = test: larval development assay (number of L3)
Procedure: In vitro experiments can be conducted by testing compounds in a larval development assay. To do this, sheep are infected with infective third-stage larvae (L3) of species of Haemonchus, Trichstrongylus, Teledorsagia, Cooperia, Oesophagostomum or Chabertia. Faeces from these sheep are collected and used for experiments; ˜100 g of faeces are crushed homogenized and suspended in ˜1000 ml of sugar solution (specific gravity 1.2), put through a ‘tea strainer’ sieve, and the large undigested food material in the sieve discarded. The sugar solution is then placed into a flat dish and strips of plastic overhead transparency film placed on the surface. The plastic is left for at least 45 minutes to allow the eggs to stick and then removed carefully. The eggs are collected by washing them from the plastic film, with water, into a 50 ml centrifuge tube. The water containing egg suspension eggs is put through a […] to remove further plant material and then centrifuged at 1,000×g for 10 minutes. The supernatant is checked for eggs and then discarded as the majority of eggs are at the bottom of the tube. These eggs are collected in 1 ml of water and diluted to ˜200 eggs/20 ml. • 1. […] Following 7 days additional incubation, the numbers of L3 larvae that had developed in each well is determined.

| Substance | pIC50 [1] | pIC50 [2] | Mobility in C. elegans at 50 μM (C. elegans) [%] | mobility of the C. elegans worms (C. elegans) | Number of L3 H. contortus/100 μM (H. contortus) |
| --- | --- | --- | --- | --- | --- |
| 2-Cyano-2-(ruthenocenecarboxamido)propyl ruthenocnecarboxylate [Compound 2a] | < 4.00 | < 4.00 | – | – | – |
| 2-Ferroceneamido-2-cyanopropyl ferrocenate [Compound 2] | 4.61 | < 4.00 | 22 | reduced | >100 |
| N-(1-(ferrocenyloxy)-2-cyanopropan-2-yl)ferroceneamide [Compound 1] | – | – | 25 | reduced | 94.7 |
